# Data taken from patent US20040038861A1, “Methods and compositions for normalizing lipid levels in mammalian tissues” (priority 2001, published 2004).
# Tests used:
# [1] = test system: soleus muscle; test: cAMP content of isolated soleus muscle from high fat-fed rats; format: cell-based, rat
# Experimental: Soleus muscle preparation. All experiments were performed according to protocols approved by the Institutional Animal Ethics Committee. 5-6 week-old male Wistar rats (160 g) were kept on a 12:12-h light/dark cycle, and fed and watered ad libitum. Animals were anaesthetised with 50 mg/kg Nembutal (pentobarbitone sodium), then sacrificed by cervical dislocation. Soleus muscles were dissected under oxygenated KHB (118 mM NaCl, 4.75 mM KCl, 1.2 mM MgSO4, 24.8 mM NaHCO3, 1.2 mM KH2PO4, 2.54 mM CaCl2, 10 mM glucose, pH 7.4) and teased into halves, then incubated as described below.
# For the measurement of cAMP in muscle, isolated soleus strips were incubated with stated concentrations of peptides, then lyophilized and deproteinized. Each strip was placed in 400 μl of 0.5 M HClO4 with 5 mM EDTA (phosphodiesterase inhibitor) and sonicated three times in 20 s bursts. Tubes were heated for 3-5 min in boiling water to coagulate protein, then centrifuged (12,000 g, 4° C., 2 min). Supernatant (300 μl) was taken and the pH adjusted to 7.0 with 75 μl of 2 M NH4OH. The samples were refrigerated (4° C., 2 h) to precipitate proteins, then centrifuged under the same conditions as above and 50 μl taken for cAMP measurement.
# [2] = test system: Wistar rats; test: Tissue free fatty acid and triglyceride content following infusion in normal-fed rats; format: in vivo, rat
# Experimental: Surgery. Experiments were performed on male Wistar rats. Animals were randomly assigned to experimental groups as outlined below. Induction and maintenance of surgical anesthesia was by 3-5% halothane and 2L oxygen. An initial blood sample was taken from a tail artery for measurement of baseline levels of blood glucose and lactate, electrolyte, acid base and oxygen status and serum levels of free fatty acids, triglyceride and cholesterol. Immediately following this, the trachea was cannulated and the animal ventilated at 60-70 breaths.min-1 with air supplemented with O2. The respiratory rate and end-tidal pressure (10-15 cmH2O) were adjusted to maintain end-tidal CO2 at 35-40 mmHg. Body temperature was maintained at 37° C. throughout surgery and the experiment by a heating pad. The carotid artery and jugular vein were cannulated with a solid-state blood pressure transducer and a saline filled PE 50 catheter respectively. For the antagonist infusion studies, surgery was similar to above with the alteration being that both the carotid artery and jugular vein were cannulated with saline filled PE 50 catheters. Fluids (saline or hormone dissolved in saline) were delivered to the jugular vein with a Y-connector to join the two lines. The carotid artery line was connected to a blood pressure transducer. Blood samples were taken from this line at time zero (baseline reading), 30 minutes and every 20 minutes until the end of the experiment at 90 minutes.
# Infusion. […] Blood glucose measurements were taken from tail capillaries at 5-minute intervals throughout the duration of the experiment. At the end of the infusion a terminal blood sample was taken by cardiac puncture and analysed as per the basal sample and also for various metabolites and hormones. Serum and plasma samples were stored at −80° C. until future analysis. Animals were killed by cervical dislocation and harvested tissues (brain, liver, kidney, soleus muscle, extensor digitorum longus muscle, left ventricle, retroperitoneal and epididymal fat pads) snap frozen in liquid N2 and stored at −80° C. until future analysis. For the antagonist studies, the protocols was the same as above with the following changes: Infusion was a combination of antagonist, CGRP or saline.
# [3] = test system: soleus muscle; test: Masoprocol effect on CGRP1-evoked NEFA and triglyceride contents in soleus muscle from high fat-fed rats; format: cell-based, rat
# Excerpt: Masoprocol, (nordihydroguaiaretic acid), is a lipoxygenase inhibitor, that has been identified as the active component of Creosote bush extracts. Oral administration of this compound lowers serum NEFA and triglyceride concentrations in rats with fructose-induced hypertriglyceridemia (Gowri et al. 2000, Am. J. Physiol. 279: E593-E600), and decrease blood glucose and triglyceride concentrations in a fat-fed/streptozotocin rat model (Reed et al. 1999, Diabetologia 42: 102-106).
# [4] = 1 pM CGRP1, high fat-fed soleus
# [5] = 100 nM CGRP1, high fat-fed soleus
substance,measurement,setting,value
rat CGRP-1,"cAMP content, agonist alone","[1]; 1 pM CGRP, control 5.7±0.2",8.6 ± 0.4 pmol/mg
same,"cAMP content, agonist alone","[1]; 100 nM CGRP1, control 5.7±0.2",9.3 ± 1 pmol/mg
same,"FFA content, Heart","[2]; CGRP 100 pmol/kg/min 1 h, CGRP-(8-37) 10 nmol/kg/min 90 minutes, control 0.8 ± 0.2",0.9 ± 0.1 µmol/g
same,"FFA content, Liver","[2]; same infusions, control 0.1 ± 0.01",0.7 ± 0.1 µmol/g
same,"FFA content, Soleus Muscle","[2]; same infusions, control 0.2 ± 0.02",0.6 ± 0.07 µmol/g
same,"FFA content, Kidney","[2]; same infusions, control 0.8 ± 0.1",0.9 ± 0.2 µmol/g
same,"FFA content, Epi Adipose","[2]; same infusions, control 2.1 ± 0.5",2.7 ± 0.7 µmol/g
same,"triglyceride content, Kidney","[2]; same infusions, control 2.8 ± 0.5",2.4 ± 0.4 µmol/g
same,"triglyceride content, Heart","[2]; same infusions, control 2.9 ± 0.4",2.6 ± 0.4 µmol/g
same,"triglyceride content, Soleus Muscle","[2]; same infusions, control 3.7 ± 0.4",1.5 ± 0.2 µmol/g
same,"triglyceride content, Liver","[2]; same infusions, control 4.3 ± 0.3",2.2 ± 0.5 µmol/g
same,"triglyceride content, Epi Adipose","[2]; same infusions, control 5.1 ± 1.2",5.0 ± 0.9 µmol/g
same,NEFA elevation,[3]; [4],482 ± 99 nmol/g
same,soleus triglyceride content (decrement),[3]; [4],1.2 mmol/g
same,NEFA elevation,[3]; [5],533 ± 114 nmol/g
same,soleus triglyceride content (decrement),[3]; [5],1.2 mmol/g
